Experimental data: ChEMBL document CHEMBL1128157, “Stereochemical differentiation of anticonvulsant and antihypertensive effects in 4-(fluorobenzoylamino)-benzopyrans” (1995)

What follows are compounds tested on Mus musculus (assay: Increase in threshold voltage (applied via a subcutaneous and a buccal electrode) for inducing tonic hind limb extension seizures in 50% (CV50) in mouse MEST model at a dose of 10 mg/kg orally). Conditions: route oral.
Format: functional, Hindlimb
With `CC1(C)Oc2ccc(C#N)cc2[C@H](NC(=O)c2ccc(F)cc2)[C@H]1O` the Change was 41%. With `CC1(C)Oc2ccc(C#N)cc2[C@@H](NC(=O)c2ccc(F)cc2)[C@@H]1O` the Change was 17%. For `CC1(C)Oc2ccc(C#N)cc2C(NC(=O)c2ccccc2)[C@@H]1O` (stereo partly specified), the Change was 29%. Work on `CC1(C)Oc2ccc(C#N)cc2[C@H](NC(=O)c2cccc(F)c2)[C@H]1O` yielded a Change of 50%. Work on `CC1(C)Oc2ccc(C#N)cc2[C@@H](NC(=O)c2cccc(F)c2)[C@@H]1O` yielded a Change of 12%. `CC(C)(C)c1ccc2c(c1)C(N1CCCC1=O)[C@H](O)C(C)(C)O2` (stereo partly specified) was tested, and the Change was 12%. In the case of `CC1(C)C=C(N2CCCC2=O)c2cc(C#N)ccc2O1`, the Change was 4%. `CC1(C)Oc2ccc(C#N)cc2C(NC(=O)c2ccc(F)cc2)[C@@H]1O` (stereo partly specified) gave a Change of 49%.

What follows are compounds tested on Mus musculus (assay: Dose required to produce a 50% elevation in seizure threshold after oral administration). Conditions: not given.
Format: functional
With `NC(=O)N1c2ccccc2C=Cc2ccccc21` [CARBAMAZEPINE] the ED50 was 12.7 mg/kg. In the case of `CCC1(c2ccccc2)C(=O)NC(=O)NC1=O` [PHENOBARBITAL], the ED50 was 10.6 mg/kg.

The compounds below were run on Mus musculus (assay: Change in threshold voltage (applied via a subcutaneous and a buccal electrode) for inducing tonic hind limb extension seizures in 50% (CV50) in mouse MEST model at a dose of 10 mg/kg orally). Conditions: route oral.
Format: functional, Hindlimb
In the case of `CC1(C)Oc2ccc(C(F)(F)F)cc2C(NC(=O)c2ccc(F)cc2)[C@@H]1O` (stereo partly specified), the Change was 33%. `CC1(C)Oc2ccncc2C(NC(=O)c2ccc(F)cc2)[C@@H]1O` (stereo partly specified) showed a Change of 5%. `CC1(C)Oc2ccc(C#N)cc2C(N2CCCC2=O)C1O` (racemic) [CROMAKALIM] gave a Change of 4%.

These compounds were tested on Mus musculus (assay: Change in threshold voltage (applied via a subcutaneous and a buccal electrode) for inducing tonic hind limb extension seizures in 50% (CV50) in mouse MEST model at a dose of 30 mg/kg orally). Conditions: route oral.
Format: functional, Hindlimb
In the case of `CC1(C)Oc2ccc(-c3ccccc3)cc2C(NC(=O)c2ccc(F)cc2)[C@@H]1O` (stereo partly specified), the Change was 20%. `CN(C(=O)c1ccc(F)cc1)C1c2cc(C#N)ccc2OC(C)(C)[C@H]1O` (stereo partly specified) was tested, and the Change was 26%. Work on `CC1(C)Oc2ccc(C#N)cc2C(NC(=O)c2ccc(C#N)cc2)[C@@H]1O` (stereo partly specified) yielded a Change of 7%. With `CC1(C)Oc2ccccc2C(NC(=O)c2ccc(F)cc2)[C@@H]1O` (stereo partly specified) the Change was 13%. `CC(C)c1ccc2c(c1)C(NC(=O)c1ccc(F)cc1)[C@H](O)C(C)(C)O2` (stereo partly specified) gave a Change of 19%. `COc1ccc2c(c1)C(NC(=O)c1ccc(F)cc1)[C@H](O)C(C)(C)O2` (stereo partly specified) was tested, and the Change was 28%. `CC1(C)Oc2ccc(C#N)cc2C(NC(=O)c2ccc(O)cc2)[C@@H]1O` (stereo partly specified) was tested, and the Change was -2%.

These compounds were tested on Mus musculus (assay: Change in threshold voltage (applied via a subcutaneous and a buccal electrode) for inducing tonic hind limb extension seizures in 50% (CV50) in mouse MEST model at a dose of 10 mg/kg intraperitoneally 30 min pretest). Conditions: not given.
Format: functional, Hindlimb
`CC1(C)Oc2ccc(C#N)cc2C(N2CCCC2=O)C1O` (racemic) [CROMAKALIM] showed a Change of -16%.
